Measured values reported in patent US8147838B2, “Peptide” (priority 2005, dated 2012).

System: PBMCs recovered from TroVax treated patients
Assay type: cell-based, human
Conditions: for most likely HLA restriction: from HLA-type frequency among responding patients; for HLA-type distribution among positive proliferative responses: DQ2: responding patients with HLA type DQ2 / all responding patients; for HLA-type distribution among positive proliferative responses: DQ2 / HLA-type distribution among positive proliferative responses: DQ4 / HLA-type distribution among positive proliferative responses: DQ5 / HLA-type distribution among positive proliferative responses: DQ6 / HLA-type distribution among positive proliferative responses: DQ7 / HLA-type distribution among positive proliferative responses: DQ8 / HLA-type distribution among positive proliferative responses: DQ9 / HLA-type distribution among positive proliferative responses: DR1 / HLA-type distribution among positive proliferative responses: DR4 / HLA-type distribution among positive proliferative responses: DR7 / HLA-type distribution among positive proliferative responses: DR8 / HLA-type distribution among positive proliferative responses: DR9 / HLA-type distribution among positive proliferative responses: DR11 / HLA-type distribution among positive proliferative responses: DR13 / HLA-type distribution among positive proliferative responses: DR15 / HLA-type distribution among positive proliferative responses: DR17 / HLA-type distribution among positive proliferative responses: DR51 / HLA-type distribution among positive proliferative responses: DR52 / HLA-type distribution among positive proliferative responses: DR53: PBMCs from TroVax treated patients; for HLA-type distribution among positive proliferative responses: DQ4: responding patients with HLA type DQ4 / all responding patients; for HLA-type distribution among positive proliferative responses: DQ5: responding patients with HLA type DQ5 / all responding patients; for HLA-type distribution among positive proliferative responses: DQ6: responding patients with HLA type DQ6 / all responding patients; for HLA-type distribution among positive proliferative responses: DQ7: responding patients with HLA type DQ7 / all responding patients; for HLA-type distribution among positive proliferative responses: DQ8: responding patients with HLA type DQ8 / all responding patients; for HLA-type distribution among positive proliferative responses: DQ9: responding patients with HLA type DQ9 / all responding patients; for HLA-type distribution among positive proliferative responses: DR1: responding patients with HLA type DR1 / all responding patients; for HLA-type distribution among positive proliferative responses: DR4: responding patients with HLA type DR4 / all responding patients; for HLA-type distribution among positive proliferative responses: DR7: responding patients with HLA type DR7 / all responding patients; for HLA-type distribution among positive proliferative responses: DR8: responding patients with HLA type DR8 / all responding patients; for HLA-type distribution among positive proliferative responses: DR9: responding patients with HLA type DR9 / all responding patients; for HLA-type distribution among positive proliferative responses: DR11: responding patients with HLA type DR11 / all responding patients; for HLA-type distribution among positive proliferative responses: DR13: responding patients with HLA type DR13 / all responding patients; for HLA-type distribution among positive proliferative responses: DR15: responding patients with HLA type DR15 / all responding patients; for HLA-type distribution among positive proliferative responses: DR17: responding patients with HLA type DR17 / all responding patients; for HLA-type distribution among positive proliferative responses: DR51: responding patients with HLA type DR51 / all responding patients; for HLA-type distribution among positive proliferative responses: DR52: responding patients with HLA type DR52 / all responding patients; for HLA-type distribution among positive proliferative responses: DR53: responding patients with HLA type DR53 / all responding patients
[1] = positive proliferative responses

Substance | most likely HLA restriction | HLA-type distribution among positive proliferative responses: DQ2 | HLA-type distribution among positive proliferative responses: DQ4 | HLA-type distribution among positive proliferative responses: DQ5 | HLA-type distribution among positive proliferative responses: DQ6 | HLA-type distribution among positive proliferative responses: DQ7 | HLA-type distribution among positive proliferative responses: DQ8 | HLA-type distribution among positive proliferative responses: DQ9 | HLA-type distribution among positive proliferative responses: DR1 | HLA-type distribution among positive proliferative responses: DR4 | HLA-type distribution among positive proliferative responses: DR7 | HLA-type distribution among positive proliferative responses: DR8 | HLA-type distribution among positive proliferative responses: DR9 | HLA-type distribution among positive proliferative responses: DR11 | HLA-type distribution among positive proliferative responses: DR13 | HLA-type distribution among positive proliferative responses: DR15 | HLA-type distribution among positive proliferative responses: DR17 | HLA-type distribution among positive proliferative responses: DR51 | HLA-type distribution among positive proliferative responses: DR52 | HLA-type distribution among positive proliferative responses: DR53 | also measured
36.2: class II 5T4 20 mer peptide (details in Table 12) (LQGLPHIRVFLDNNPWVCDC) [Peptide 36.2] | DQ2, DR7, or DR53 | 3/7 | 0/7 | 2/7 | 2/7 | 2/7 | 0/7 | 2/7 | 2/7 | 1/7 | 3/7 | 0/7 | 1/7 | 1/7 | 1/7 | 2/7 | 1/7 | 2/7 | 2/7 | 3/7 | responders with HLA type DQ2 out of all responders [1]: 3 out of 7; responders with HLA type DR7 out of all responders [1]: 3 out of 7; responders with HLA type DR53 out of all responders [1]: 3 out of 7
40.2: class II 5T4 20 mer peptide (details in Table 12) (EVVQGKDRLTCAYPEKMRNR) [Peptide 40.2] | DQ6, DR15, DR51, or DR52 | 5/12 | 1/12 | 2/12 | 8/12 | 3/12 | 0/12 | 2/12 | 1/12 | 1/12 | 3/12 | 1/12 | 1/12 | 1/12 | 3/12 | 6/12 | 3/12 | 6/12 | 6/12 | 4/12 | responders with HLA type DQ6 out of all responders [1]: 8 out of 12; responders with HLA type DR15 out of all responders [1]: 6 out of 12; responders with HLA type DR51 out of all responders [1]: 6 out of 12; responders with HLA type DR52 out of all responders [1]: 6 out of 12
43.2: class II 5T4 20 mer peptide (details in Table 12) (LNSADLDCDPILPPSLQTSY) [Peptide 43.2] | DQ6, DR15, or DR51 | 5/11 | 1/11 | 3/11 | 7/11 | 1/11 | 0/11 | 1/11 | 2/11 | 0/11 | 4/11 | 1/11 | 0/11 | 1/11 | 2/11 | 6/11 | 2/11 | 6/11 | 4/11 | 3/11 | responders with HLA type DQ6 out of all responders [1]: 7 out of 11; responders with HLA type DR15 out of all responders [1]: 6 out of 11; responders with HLA type DR51 out of all responders [1]: 6 out of 11
42.2: class II 5T4 20 mer peptide (details in Table 12) (MRNRVLLELNSADLDCDPIL) [Peptide 42.2] | DQ6, DR51, DQ5, or DR15 | 4/12 | 0/12 | 6/12 | 8/12 | 0/12 | 1/12 | 1/12 | 4/12 | 1/12 | 3/12 | 0/12 | 0/12 | 1/12 | 2/12 | 6/12 | 2/12 | 7/12 | 5/12 | 3/12 | responders with HLA type DQ5 out of all responders [1]: 6 out of 12; responders with HLA type DQ6 out of all responders [1]: 8 out of 12; responders with HLA type DR15 out of all responders [1]: 6 out of 12; responders with HLA type DR51 out of all responders [1]: 7 out of 12
45.2: class II 5T4 20 mer peptide (details in Table 12) (MRNRVLLELNSADLDCDPIL) [Peptide 45.2] | DQ6, DR53, DR15, or DR51 | 3/8 | 0/8 | 2/8 | 5/8 | 3/8 | 0/8 | 0/8 | 2/8 | 3/8 | 2/8 | 0/8 | 0/8 | 0/8 | 1/8 | 4/8 | 1/8 | 4/8 | 2/8 | 5/8 | responders with HLA type DQ6 out of all responders [1]: 5 out of 8; responders with HLA type DR15 out of all responders [1]: 4 out of 8; responders with HLA type DR51 out of all responders [1]: 4 out of 8; responders with HLA type DR53 out of all responders [1]: 5 out of 8
